{"source": "ChEMBL document CHEMBL5727873", "about": "“Heterocyclic compounds and uses thereof” (2020)", "target": "T1, Histone deacetylase 8 (Homo sapiens, UniProt Q9BY41)", "T1 sequence (Q9BY41 whole entry)": "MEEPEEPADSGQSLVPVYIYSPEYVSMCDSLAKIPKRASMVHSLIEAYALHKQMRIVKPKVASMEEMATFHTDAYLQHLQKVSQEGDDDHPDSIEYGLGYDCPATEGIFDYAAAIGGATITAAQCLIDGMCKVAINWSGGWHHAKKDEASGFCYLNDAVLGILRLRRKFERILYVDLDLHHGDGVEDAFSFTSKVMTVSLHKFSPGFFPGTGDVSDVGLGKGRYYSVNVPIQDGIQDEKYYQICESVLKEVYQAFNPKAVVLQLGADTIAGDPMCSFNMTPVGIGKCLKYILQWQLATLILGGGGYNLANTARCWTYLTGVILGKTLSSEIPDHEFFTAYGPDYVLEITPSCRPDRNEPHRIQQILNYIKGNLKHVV", "test": "Enzymatic Assay: HDAC-Glo I/II Assay Kit was purchased from Promega Corporation (Madison, Wis.), including the following components: HDAC-Glo I/II Buffer (25 mM Tris buffer, pH 8.0, supplemented with 137 mM: NaCl, 2.7 mM KCl, 1% v/v Triton X-100 and 1 mM: MgCl2), luminogenic substrates Boc-GAK(Ac)-aminoluciferin (HDAC-Glo I/II substrate), proprietary developer reagent (containing trypsin). Assay:The HDAC8 reaction was performed at room temperature in white 384-well polystyrene, flat-bottom microtiter plate (Greiner Bio-one, Monroe, N.C.) in a final volume of 20 μL. Test compounds were first diluted serially in DMSO and 100 nL were transferred to the plate wells by Echo 550 (Labcyte, Sunnyvale, Calif.) before the addition of other reaction components. The final concentration of DMSO in the assay was 0.5%. The HDAC-Glo I/II assay reagent was prepared by rehydration of lyophilized HDAC-Glo I/II substrate in 10 mL. HDAC-Glo I/II assay buffer followed with the addition of 10 μL of developer reagent. 10 uL of 3 nM HDAC8 in the HDAC-Glo I/II assay buffer were first dispensed into the microliter plate containing the compounds and incubated at room temperature for 30 min. The reactions were initiated with the addition of 10 uL HDAC-Glo I/II assay reagent with Multidrop.", "data": [{"molecule": "Cn1nc(C(Cc2ccccc2)C(=O)NO)c2ccc(Cl)cc21", "note": "(configuration not stated)", "values": [{"measurement": "IC50", "value": "< 50", "unit": "nM"}]}, {"molecule": "CC1CCN(c2cccc3nn(C(Cc4ccccc4)C(=O)NO)cc23)CC1", "note": "(configuration not stated)", "values": [{"measurement": "IC50", "value": "> 500", "unit": "nM"}]}]}
